Data published in ChEMBL document CHEMBL1201862, “PubChem BioAssay data set” (2004).
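Method: 48-hour compound exposure of cells in 96-well plates, five concentrations, linear interpolation of endpoints. GI50: concentration for 50% inhibition of growth.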 Activity calls are given as the source filed them. No stated cut-off is given here; in the data, active = GI50 up to about 1.1 µM and inactive = higher.

Key:
Test in all cases: NCI anticancer screen, dose series, 48 h
SK-MEL-5 = system: SK-MEL-5
MCF7 = system: MCF7
OVCAR-3 = system: OVCAR-3
SF-295 = system: SF-295
SN12C = system: SN12C
Malme-3M = system: Malme-3M
SNB-19 = system: SNB-19
HCT-15 = system: HCT-15
UO-31 = system: UO-31
SK-OV-3 = system: SK-OV-3
CAKI-1 = system: CAKI-1
OVCAR-4 = system: OVCAR-4
HCC 2998 = system: HCC 2998
OVCAR-5 = system: OVCAR-5
EKVX = system: EKVX
PC-3 = system: PC-3
UACC-62 = system: UACC-62
Hs-578T = system: Hs-578T
CCRF-CEM = system: CCRF-CEM

Row | SMILES | GI50 (SK-MEL-5) | GI50 (MCF7) | GI50 (OVCAR-3) | GI50 (SF-295) | GI50 (SN12C) | GI50 (Malme-3M) | GI50 (SNB-19) | GI50 (HCT-15) | GI50 (UO-31) | GI50 (SK-OV-3) | GI50 (CAKI-1) | GI50 (OVCAR-4) | GI50 (HCC 2998) | GI50 (OVCAR-5) | GI50 (EKVX) | GI50 (PC-3) | GI50 (UACC-62) | GI50 (Hs-578T) | GI50 (CCRF-CEM)
1 | O=C(c1ccccc1)n1[nH]c(=O)n(-c2ccc(Cl)cc2)c1=O | > 100 µM (inactive) | > 100 µM (inactive) | > 100 µM (inactive) | > 100 µM (inactive) | > 100 µM (inactive) | > 100 µM (inactive) | 39 µM (inactive) | > 100 µM | > 100 µM (inactive) | > 100 µM (inactive) | > 100 µM (inactive) | > 100 µM (inactive) | > 100 µM (inactive) | > 100 µM (inactive) | > 100 µM (inactive) | > 100 µM (inactive) | > 100 µM (inactive) | > 100 µM (inactive) | > 100 µM (inactive)
2 | CC(NP(=O)(c1ccccc1)c1ccccc1)c1ccccc1 (stereo not given) | > 100 µM (inactive) | > 100 µM (inactive) | > 100 µM (inactive) | > 100 µM (inactive) | > 100 µM (inactive) | > 100 µM (inactive) | > 100 µM (inactive) | > 100 µM | > 100 µM (inactive) | > 100 µM (inactive) | > 100 µM (inactive) | > 100 µM (inactive) | > 100 µM (inactive) | > 100 µM (inactive) | > 100 µM (inactive) | > 100 µM (inactive) | > 100 µM (inactive) | > 100 µM (inactive) | > 100 µM (inactive)
3 | Nc1nc(Cl)c(N)c(NCC2(CO)CCC(CCc3ccccc3)C2)n1 (stereo not given) | 0.033 µM (active) | 7.59 µM (inactive) | 18.7 µM (inactive) | 10.6 µM (inactive) | 22.8 µM (inactive) | 1.83 µM (inactive) | 25.7 µM (inactive) | 16.1 µM | 18.4 µM (inactive) | 22.3 µM (inactive) | 1.47 µM (inactive) | 17.3 µM (inactive) | 16.9 µM (inactive) | 20.9 µM (inactive) | 3.15 µM (inactive) | 17.3 µM (inactive) | 12.1 µM (inactive) | 21.1 µM (inactive) | 6.21 µM (inactive)
4 | CC(=O)N1N=C(N)CC1=O | > 100 µM (inactive) | > 100 µM (inactive) | > 100 µM (inactive) | > 100 µM (inactive) | > 100 µM (inactive) | > 100 µM (inactive) | > 100 µM (inactive) | > 100 µM | > 100 µM (inactive) | > 100 µM (inactive) | > 100 µM (inactive) | > 100 µM (inactive) | > 100 µM (inactive) | > 100 µM (inactive) | > 100 µM (inactive) | > 100 µM (inactive) | > 100 µM (inactive) | > 100 µM (inactive) | > 100 µM (inactive)
5 | OC1COC(OCc2ccccc2)C(O)C1O (stereo not given) | > 100 µM (inactive) | > 100 µM (inactive) | > 100 µM (inactive) | > 100 µM (inactive) | > 100 µM (inactive) | > 100 µM (inactive) | > 100 µM (inactive) | > 100 µM | > 100 µM (inactive) | > 100 µM (inactive) | > 100 µM (inactive) | > 100 µM (inactive) | > 100 µM (inactive) | > 100 µM (inactive) | > 100 µM (inactive) | > 100 µM (inactive) | > 100 µM (inactive) | > 100 µM (inactive) | > 100 µM (inactive)
6 | O=CC(=C(I)I)c1ccccc1 | 4.07 µM (inactive) | 3.11 µM (inactive) | 1.98 µM (inactive) | 7.78 µM (inactive) | 2.28 µM (inactive) | 2.15 µM (inactive) | 7.78 µM (inactive) | 1.82 µM | 2.69 µM (inactive) | 15.9 µM (inactive) | 3.03 µM (inactive) | 2.03 µM (inactive) | 10.5 µM (inactive) | 6.75 µM (inactive) | 11.5 µM (inactive) | 3.7 µM (inactive) | 6.08 µM (inactive) | 2.83 µM (inactive) | 0.2 µM (active)
7 | O=C(O)c1ccc(C(=O)Nc2cccc3ccccc23)c(C(=O)O)c1 | > 100 µM (inactive) | > 100 µM (inactive) | > 100 µM (inactive) | > 100 µM (inactive) | > 100 µM (inactive) | > 100 µM (inactive) | > 100 µM (inactive) | > 100 µM | > 100 µM (inactive) | > 100 µM (inactive) | > 100 µM (inactive) | > 100 µM (inactive) | > 100 µM (inactive) | > 100 µM (inactive) | > 100 µM (inactive) | > 100 µM (inactive) | > 100 µM (inactive) | > 100 µM (inactive) | > 100 µM (inactive)
8 | CCCCCCC(=O)OC[n+]1ccc(-c2c(COC(=O)NC(C)C)c(COC(=O)NC(C)C)c3n2CCC3)cc1 | > 100 µM (inactive) | 45.8 µM (inactive) | > 100 µM (inactive) | > 75.2 µM (inactive) | 49.5 µM (inactive) | > 64.7 µM (inactive) | > 100 µM (inactive) | > 100 µM | > 100 µM (inactive) | > 100 µM (inactive) | 30.8 µM (inactive) | > 100 µM (inactive) | > 100 µM (inactive) | > 100 µM (inactive) | > 100 µM (inactive) | > 90.8 µM (inactive) | 37.1 µM (inactive) | > 100 µM (inactive) | 24.6 µM (inactive)
9 | CC1(Cc2cc3c(cc2C2(c4ccc([N+](=O)[O-])cc4)OCCO2)OCO3)OCCO1 | 41.7 µM (inactive) | 51.8 µM (inactive) | 69.2 µM (inactive) | > 100 µM (inactive) | > 100 µM (inactive) | > 100 µM (inactive) | > 100 µM (inactive) | 51.1 µM | 34.3 µM (inactive) | > 100 µM (inactive) | 63.5 µM (inactive) | 50.2 µM (inactive) | > 100 µM (inactive) | > 100 µM (inactive) | > 100 µM (inactive) | 47.2 µM (inactive) | 36 µM (inactive) | 71.1 µM (inactive) | 49.3 µM (inactive)
10 | COc1cc(/C=C/c2ccccn2)cc(OC)c1OC | > 10 µM (inactive) | > 10 µM (inactive) | > 10 µM (inactive) | > 10 µM (inactive) | > 10 µM (inactive) | > 10 µM (inactive) | > 10 µM (inactive) | > 10 µM | > 10 µM (inactive) | > 10 µM (inactive) | > 10 µM (inactive) | > 10 µM (inactive) | > 10 µM (inactive) | > 10 µM (inactive) | > 10 µM (inactive) | > 10 µM (inactive) | > 10 µM (inactive) | > 10 µM (inactive) | > 10 µM (inactive)
11 | CCO/C=C1\SC(=S)N(c2ccc(OCC)cc2)C1=O | 76.7 µM (inactive) | 75.5 µM (inactive) | > 100 µM (inactive) | 95.3 µM (inactive) | > 100 µM (inactive) | 85.7 µM (inactive) | > 100 µM (inactive) | 72.4 µM | 54.5 µM (inactive) | > 100 µM (inactive) | 55.7 µM (inactive) | 57 µM (inactive) | 52.5 µM (inactive) | > 100 µM (inactive) | > 100 µM (inactive) | 57.1 µM (inactive) | 68.4 µM (inactive) | 39.9 µM (inactive) | 54 µM (inactive)
12 | COC(=O)/C(C#N)=C1\NC(=O)CC(c2ccccc2)C1C#N (stereo not given) | > 100 µM (inactive) | > 100 µM (inactive) | > 100 µM (inactive) | > 100 µM (inactive) | > 100 µM (inactive) | > 100 µM (inactive) | > 100 µM (inactive) | > 100 µM | > 100 µM (inactive) | > 100 µM (inactive) | > 100 µM (inactive) | > 100 µM (inactive) | > 100 µM (inactive) | > 100 µM (inactive) | > 100 µM (inactive) | > 100 µM (inactive) | > 100 µM (inactive) | > 100 µM (inactive) | > 100 µM (inactive)
13 | CC(C(=O)c1ccncc1)c1ccccn1 (stereo not given) | > 100 µM (inactive) | > 100 µM (inactive) | > 100 µM (inactive) | > 100 µM (inactive) | > 100 µM (inactive) | > 100 µM (inactive) | > 100 µM (inactive) | > 100 µM | > 100 µM (inactive) | > 100 µM (inactive) | > 100 µM (inactive) | > 100 µM (inactive) | > 100 µM (inactive) | > 100 µM (inactive) | > 100 µM (inactive) | > 100 µM (inactive) | > 100 µM (inactive) | > 100 µM (inactive) | > 100 µM (inactive)
14 | Cc1cc(Cl)ccc1NC(=O)/C(Cc1nc2ccc(C(=O)c3ccccc3)cc2nc1O)=N/NC(=O)c1ccncc1 | 92 µM (inactive) | > 100 µM (inactive) | > 100 µM (inactive) | > 100 µM (inactive) | > 100 µM (inactive) | > 100 µM (inactive) | > 100 µM (inactive) | 92 µM | 53.8 µM (inactive) | > 100 µM (inactive) | > 100 µM (inactive) | > 100 µM (inactive) | > 100 µM (inactive) | > 100 µM (inactive) | > 100 µM (inactive) | > 100 µM (inactive) | 97.3 µM (inactive) | > 100 µM (inactive) | > 100 µM (inactive)
15 | O=C1CC(=O)c2c(N3CCCC3)sc(N3CCCC3)c21 | > 100 µM (inactive) | > 100 µM (inactive) | > 100 µM (inactive) | > 100 µM (inactive) | > 100 µM (inactive) | > 100 µM (inactive) | > 100 µM (inactive) | > 100 µM | > 100 µM (inactive) | > 100 µM (inactive) | > 100 µM (inactive) | > 100 µM (inactive) | > 100 µM (inactive) | > 100 µM (inactive) | > 100 µM (inactive) | > 100 µM (inactive) | > 100 µM (inactive) | > 100 µM (inactive) | 41.2 µM (inactive)
